The results in this text go back to US7575857B2, “Screening method for identifying protective substances for treating neurodegenerative and/or ischemic disorders” (SYGNIS Bioscience GmbH & Co. KG, priority 2002, dated 2009).

One assay has as its system haemoglobin. The assay is described as follows: Haemoglobin concentration in brain homogenate (rapid cyanhaemiglobin method) after one-off i.p. erythropoetin injection. The assay is classed as in vivo, mice. The note with it: 5000 units/kg i.p., 24 hours after injection, perfused brain, n=3. On the procedure:
In continuation of Example 3, the haemoglobin concentration was also determined in the brain of mice to whom intraperitoneal erythropoetin (Erypo made by the company Janssen) had been administered (5000 units/kg body weight). After injection of EPO, the mice were terminally anaesthetised after 24 hours by injection with Rompun/Ketanest, and the blood was rinsed out of the vascular system of the brain by transcardial perfusion with 40 ml Hanks balanced salt solution (HBSS). […] The protein content of the samples was determined according to the Bradford method (Bradford, 1976, Anal. Biochem. 72, 248-254). The haemoglobin concentration was measured with the rapid cyanhaemiglobin method (van Kampen and Zijlstra, 1961, Clin. Chim. Acta 6, 538-544). […] The extinction at 546 nm was then measured and multiplied by 36.7 to obtain the concentration in g/dl. These values were then related to the protein concentration/volume brain tissue, giving the following values (including the measured transgenic animals from Example 3): control animals: 32.54±17.51 μg/mg brain protein (n=10); EPO-transgenic animals (line tg6): 79.00±32.12 (n=13); EPO-injected animals (24 hours after injection): 77.14±13.51 μg/mg brain protein (n=3). […]

For assay [1], the system named is δ-aminolaevulinic acid synthase (ALAS) mRNA. Kind of assay: Quantitative PCR for ALAS mRNA in brain of EPO-injected animals. It is filed as in vivo. The text has this: The primer sequences used and PCR conditions were, for ALAS:
(annealing temperature: 60 C.; measurement temperature: 83 C.; 45 cycles), and for DALDH: Daldh_m—1 s: […] (SEQ ID NO:12), daldh_m—1 as: […] (SEQ ID NO: 13) (annealing temperature: 60 C.; measurement temperature: 85 C.; 45 cycles).
Through the daily administration of this dosage of EPO for 7 days, induction factors of up to 130 times were achieved: sham: 1±0.64; EPO-injected animal 1 (Epo—1)=11.67±5.46; EPO-injected animal 2 (Epo—2)=118.93±31.02; EPO-injected animal 3 (Epo—3)=44.88±15.15; EPO-injected animal 4 (Epo—4)=129.47±8.77 (FIG. 18).

The subject of another assay is neuroglobin mRNA. The assay is described as follows: Quantitative PCR for neuroglobin mRNA after erythropoetin injection. The assay is classed as in vivo. The note with it: 5000 units/kg i.p., single injection. The text has this: (§1) However, it has important biochemical characteristics which fundamentally distinguish it from the globins, e.g. a far higher oxygen affinity (Dewilde et al. (2001), Journal of Biological Chemistry, 276, 38949-55). Neuroglobin is neuroprotective, although the mechanism here is not known (Sun et al. (2001), Proc. Natl. Acad. Sci. USA, 98, 15306-11, Venis (2001), Lancet, 358, 2055, Sun et al. (2003), Proc. Natl. Acad. Sci. USA, 5, 5). To determine whether neuroglobin possibly also plays a role in erythropoetin-conveyed neuroprotection, the relative content of neuroglobin mRNA after EPO administration was determined using relative quantitative PCR in comparison with cyclophilin. 5000 units of EPO/kg body weight were applied i.p. and the animals were killed after transcardial perfusion. RNA and cDNA were obtained using standard methods. From serial dilutions of the cDNA (3 times serial dilutions), the levels of cyclophilin and neuroglobin were determined and the ratio of neuroglobin/cyclophilin in the sham-treated animals set at 1. The standard deviations in the following values relate to measurements at different dilutions (n=4) and represent the measurement accuracy. The primers used were: ng1_m_LC—1s: […] (SEQ ID NO: 14), ng1_m_LC—1as: […] (SEQ ID NO: 15) for neuroglobin. […]

The subject of another assay is alpha globin. Kind of assay: alpha globin induction in the animals of the neuroglobin experiment. The assay is classed as in vivo. The note with it: same animals as neuroglobin test, 5000 units/kg i.p.
Description: as §1

Another assay has as its system beta globin. Kind of assay: beta globin induction in the animals of the neuroglobin experiment. The assay is classed as in vivo. As to conditions: same animals as neuroglobin test, 5000 units/kg i.p.
Description: as §1

Where [2] appears, read: 5000 units/kg i.p. daily for 7 days.

Values joined by “and” are separate entries in the source; they are usually repeats but may differ in a detail not shown here. Identical values can stand only once.

As for Erythropoietin [EPO], in the assay with haemoglobin, the “haemoglobin concentration related to brain protein” value was 77.14±13.51 μg/mg brain protein. Also, in assay [1] (setting [2]), the ALAS induction factors result was “up to 130 times”; the “ALAS mRNA level (sham = 1), individual animals” value is 11.67±5.46 and 118.93±31.02 and 44.88±15.15 and 129.47±8.77. Besides, in assay [1] (one-off dose 5000 units/kg i.p., 24 h), the “ALAS mRNA level (sham = 1), individual animals” value is 10.07±0.00 and 8.76±0.18 and 14.69±0.27. Also, the ALAS induction entry in assay [1] (same animals as neuroglobin test, 5000 units/kg i.p.) is “approx. 10 times”. The “ratio neuroglobin/cyclophilin mRNA (sham-treated set at 1), individual animals” value in the assay with neuroglobin mRNA was “no induction and 1.01±0.15 and 0.99±0.15 and 1.04±0.13”. In addition, the alpha globin induction result in the assay on alpha globin is given as “approx. 14 times”. The beta globin induction result in the assay on beta globin is “approx. 10 times”.
